According to patent publication US9630947B2, “Therapeutic compounds and related methods of use” (OTSUKA PHARMACEUTICAL CO., LTD., priority 2009, dated 2017):

Target: T1, purified STEP46 enzyme (Homo sapiens, UniProt P54829)
T1 sequence (P54829 1-565): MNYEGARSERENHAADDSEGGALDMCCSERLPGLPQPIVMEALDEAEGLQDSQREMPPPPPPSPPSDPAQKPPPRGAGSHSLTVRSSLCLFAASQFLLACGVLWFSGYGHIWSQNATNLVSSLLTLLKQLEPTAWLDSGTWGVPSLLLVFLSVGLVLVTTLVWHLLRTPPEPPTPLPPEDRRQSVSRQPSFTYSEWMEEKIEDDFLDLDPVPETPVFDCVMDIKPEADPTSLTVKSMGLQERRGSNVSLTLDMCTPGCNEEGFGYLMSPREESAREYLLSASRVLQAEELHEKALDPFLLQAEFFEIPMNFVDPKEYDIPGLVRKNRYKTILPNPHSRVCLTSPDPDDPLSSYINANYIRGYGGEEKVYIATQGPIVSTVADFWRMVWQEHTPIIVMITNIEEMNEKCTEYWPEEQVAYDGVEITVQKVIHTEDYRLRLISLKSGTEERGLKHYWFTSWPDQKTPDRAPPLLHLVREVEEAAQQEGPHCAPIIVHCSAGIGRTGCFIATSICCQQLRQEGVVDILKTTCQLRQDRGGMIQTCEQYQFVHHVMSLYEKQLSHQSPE
Assay: STEP46 biochemical assay (DiFMUP fluorescence phosphatase assay)
Conditions: DiFMUP 10 μM, read-out: STEP IC50
How it was run: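 Compounds preincubated 30 min at room temperature with purified STEP46 (1 ng/well) in 50 mM Hepes, 1 mM DTT, 0.02% Brij35, then 10 μM DiFMUP (final) added for 90 min at 27 °C; 2% DMSO, fluorescence at 360/460 nm. IC50 from four-parameter fit of % inhibition; activators reported as negative % inhibition at 25, 50 and 100 uM.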

COc1ccc2nc(-c3cccnc3)nc(Nc3nc(-c4ccc(Cl)cc4)cs3)c2c1 [Compound 400]
IC50: 1000 to 10000 nM

Clc1ccc2c(Nc3ccc(Cl)c(Cl)c3)nc(-c3cnccn3)nc2c1 [Compound 1140]
IC50: < 1000 nM

Fc1ccc(-c2ccc3nc(-c4cccnc4)nc(Nc4ccc(F)c(Cl)c4)c3c2)c(F)c1 [Compound 671]
IC50: 1000 to 10000 nM

COc1ccc2nc(-c3cnccn3)nc(Nc3ccc(Cl)c(Cl)c3)c2c1 [Compound 1234]
IC50: 1000 to 10000 nM

COc1ccc2nc(-c3cccnc3)nc(Nc3ccc4c(c3)CCC4)c2c1 [Compound 306]
IC50: > 10000 nM

CNc1nc(-c2cccnc2)nc2ccc(-c3ccc(F)cc3F)cc12 [Compound 1611]
IC50: 1000 to 10000 nM

COc1ccc2c(Nc3ccc(F)c(Cl)c3)nc(-c3ccnnc3)nc2c1 [Compound 1155]
IC50: 1000 to 10000 nM

COc1ncc(-c2ccc3nc(-c4cccnc4)nc(Nc4ccc(F)c(Cl)c4)c3c2)cn1 [Compound 666]
IC50: < 1000 nM

COc1ccc2nc(-c3cccnc3)nc(Nc3ccc4ccc(=O)[nH]c4c3)c2c1 [Compound 325]
IC50: < 1000 nM

Fc1cccc(-c2ccc3c(Nc4ccc(F)c(Cl)c4)nc(-c4cccnc4)nc3c2)c1 [Compound 688]
IC50: < 1000 nM

FC1(F)Oc2ccc(Nc3nc(-c4cccnc4)nc4ccc(-c5cccnc5)cc34)cc2O1 [Compound 312]
IC50: < 1000 nM

COc1ccc(Cl)c(Nc2nc(-c3cccnc3)nc3ccc(OC)cc23)c1 [Compound 932]
IC50: 1000 to 10000 nM

CCOc1ccc2nc(-c3cccnc3)nc(Nc3ccc4nonc4c3)c2c1 [Compound 334]
IC50: 1000 to 10000 nM

Fc1ccc(Nc2nc(-c3cccnc3)nc3cc(-c4cccnc4)ccc23)cc1Cl [Compound 677]
IC50: > 10000 nM
